From PubChem BioAssay AID298 (DTP/NCI, 2004) come the findings set out here.

Where “and” joins values, the source holds several entries; their conditions need not be identical. Equal values may be shown once. Inconclusive results are not listed.

This experiment relates to MX-1 breast xenograft, intrarenal, nude mice, tumor weight. As to the kind of experiment: NCI In Vivo Anticancer Drug Screen. Data for tumor model Human Mammary Carcinoma MX-1 Xenograft (intrarenal inoculation) in NU/NU BALB/C (nude) mice. As to conditions: endpoint: mean tumor weight change, higher = larger tumour. An outline of the steps: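 Compounds were given to mice carrying transplanted tumors, and tumor size or survival was measured. Each value is the treated-group measurement (T) divided by the vehicle-treated control-group measurement (C).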
In general terms: A xenograft is tissue or cells of one species grown in another, often human tumour cells in immunodeficient mice.

The mark [1] stands for this setting: dose: 50.0 mg/kg/injection, schedule: Q04DX003 (ip), vehicle: saline with Tween-80.
Where [2] appears, read: dose: 100.0 mg/kg/injection, schedule: Q04DX003 (ip), vehicle: saline with Tween-80.
[3] abbreviates: dose: 150.0 mg/kg/injection, schedule: Q04DX003 (ip), vehicle: saline with Tween-80.
Where [4] appears, read: dose: 100.0 mg/kg/injection, schedule: Q04DX003 (sc), vehicle: saline with Tween-80.
Setting [5] is: dose: 200.0 mg/kg/injection, schedule: Q04DX003 (sc), vehicle: saline with Tween-80.
Setting [6] is: dose: 400.0 mg/kg/injection, schedule: Q04DX003 (sc), vehicle: saline with Tween-80.

For `CS(=O)(=O)OCCN(CCOS(C)(=O)=O)c1ccc(C=Nc2ccc(-c3csc(COc4ccccc4)n3)cc2)cc1`, the T/C is 13 % of control (dose: 50.0 mg/kg/injection, schedule: Q01DX010 (sc), vehicle: Klucel (hydroxypropylcellulose) (HPC)); -6 % of control (dose: 100.0 mg/kg/injection, schedule: Q01DX010 (sc), vehicle: Klucel (hydroxypropylcellulose) (HPC)); 24 % of control (dose: 100.0 mg/kg/injection, schedule: Q04DX003 (ip), vehicle: Klucel (hydroxypropylcellulose) (HPC)); 32 % of control (dose: 100.0 mg/kg/injection, schedule: Q04DX003 (sc), vehicle: Klucel (hydroxypropylcellulose) (HPC)); -61 % of control (dose: 200.0 mg/kg/injection, schedule: Q01DX010 (sc), vehicle: Klucel (hydroxypropylcellulose) (HPC)); 3 % of control (dose: 200.0 mg/kg/injection, schedule: Q04DX003 (ip), vehicle: Klucel (hydroxypropylcellulose) (HPC)). Further, the T/C (dose: 200.0 mg/kg/injection, schedule: Q04DX003 (sc), vehicle: Klucel (hydroxypropylcellulose) (HPC)) was 18 % of control.
`CCCCCCCCCCCCN1C(C)=CS/C1=C\C=C\c1scc(C)[n+]1CCCCCCCCCCCC`: the T/C by setting is: (dose: 0.75 mg/kg/injection, schedule: Q04DX003 (ip), vehicle: saline with Tween-80) 91 % of control; (dose: 1.5 mg/kg/injection, schedule: Q04DX003 (ip), vehicle: saline with Tween-80) 89 % of control; (dose: 3.0 mg/kg/injection, schedule: Q04DX003 (ip), vehicle: saline with Tween-80) 28 % of control.
In the case of `C=COC(=O)C(Cc1ccccc1)NC(=O)OCc1ccccc1` (centres undefined), the T/C (dose: 300.0 mg/kg/injection, schedule: Q04DX003 (sc), vehicle: saline with Tween-80) is 63 % of control; the T/C (dose: 600.0 mg/kg/injection, schedule: Q04DX003 (sc), vehicle: saline with Tween-80) is 85 % of control; the T/C (dose: 1200.0 mg/kg/injection, schedule: Q04DX003 (sc), vehicle: saline with Tween-80) was 112 % of control.
With `CN(C)N=Nc1ccc(C(N)=O)cc1`, the T/C runs as follows: under setting [1], 85 % of control; under setting [2], 78 % of control; (dose: 200.0 mg/kg/injection, schedule: Q04DX003 (ip), vehicle: saline with Tween-80) 80 % of control.
As to `[Cl][Sn]([c]1ccccc1)[c]1ccccc1`, the T/C was 104 % of control (dose: 300.0 mg/kg/injection, schedule: Q04DX003 (sc), vehicle: saline); 86 % of control (dose: 600.0 mg/kg/injection, schedule: Q04DX003 (sc), vehicle: saline); 55 % of control (dose: 1200.0 mg/kg/injection, schedule: Q04DX003 (sc), vehicle: saline); 66 % of control (dose: 2400.0 mg/kg/injection, schedule: Q04DX003 (sc), vehicle: saline).
In the case of `O=S1(=O)CS(=O)(=O)OCCO1`, the T/C (dose: 12.5 mg/kg/injection, schedule: Q04DX003 (sc), vehicle: Klucel (hydroxypropylcellulose) (HPC)) was 72 % of control; the T/C (dose: 25.0 mg/kg/injection, schedule: Q04DX003 (sc), vehicle: Klucel (hydroxypropylcellulose) (HPC)) was 23 % of control; the T/C (dose: 37.5 mg/kg/injection, schedule: Q04DX003 (sc), vehicle: Klucel (hydroxypropylcellulose) (HPC)) was 42 % of control; the T/C (dose: 50.0 mg/kg/injection, schedule: Q04DX003 (sc), vehicle: Klucel (hydroxypropylcellulose) (HPC)) was 2 % of control; the T/C (dose: 150.0 mg/kg/injection, schedule: Q04DX003 (sc), vehicle: Klucel (hydroxypropylcellulose) (HPC)) is 16 % of control and 21 % of control; the T/C (dose: 300.0 mg/kg/injection, schedule: Q04DX003 (sc), vehicle: Klucel (hydroxypropylcellulose) (HPC)) was 11 % of control.
Regarding `CC(O)CCC(=O)c1ccoc1` (centres undefined), the T/C runs as follows: (dose: 3.75 mg/kg/injection, schedule: Q01DX010 (ip), vehicle: saline) 191 % of control; (dose: 7.5 mg/kg/injection, schedule: Q01DX010 (ip), vehicle: saline) 95 % of control and 120 % of control; (dose: 60.0 mg/kg/injection, schedule: Q01DX010 (ip), vehicle: saline) 49 % of control.
With `CCC(=O)[O][Bi]([c]1ccccc1)[c]1ccccc1`, the T/C was 100 % of control (dose: 12.5 mg/kg/injection, schedule: Q04DX003 (ip), vehicle: Klucel (hydroxypropylcellulose) (HPC)) and 77 % of control (dose: 25.0 mg/kg/injection, schedule: Q04DX003 (ip), vehicle: Klucel (hydroxypropylcellulose) (HPC)).
Take `COc1cc2c[n+](C)c3c(c2cc1OC)Cc1cc2c(cc1-3)OCO2`: the T/C runs as follows: (dose: 75.0 mg/kg/injection, schedule: Q04DX003 (ip), vehicle: saline with Tween-80) 102 % of control; under setting [3], 35 % of control.
`CC(C)CC(=O)NC(C(=O)NC(C(=O)NC(CC(C)C)C(O)CC(=O)NC(C)C(=O)NC(CC(C)C)C(O)CC(=O)O)C(C)C)C(C)C` (centres undefined): the T/C by setting is: (dose: 150.0 mg/kg/injection, schedule: Q04DX002 (ip), vehicle: Klucel (hydroxypropylcellulose) (HPC)) 47 % of control; (dose: 150.0 mg/kg/injection, schedule: Q04DX003 (ip), vehicle: Klucel (hydroxypropylcellulose) (HPC)) 85 % of control; (dose: 300.0 mg/kg/injection, schedule: Q04DX002 (ip), vehicle: Klucel (hydroxypropylcellulose) (HPC)) 57 % of control; (dose: 600.0 mg/kg/injection, schedule: Q04DX002 (ip), vehicle: Klucel (hydroxypropylcellulose) (HPC)) 21 % of control.
Regarding `CS(=O)(=O)c1ncc(Br)cn1`, the T/C is 98 % of control (dose: 25.0 mg/kg/injection, schedule: Q01DX010 (sc), vehicle: distilled water + Tween-80) and 118 % of control (dose: 200.0 mg/kg/injection, schedule: Q01DX010 (sc), vehicle: distilled water + Tween-80).
For `O=C[C@@H](CO)O[C@H](C=O)n1cnc2c(=O)[nH]cnc21`, the T/C by setting is: under setting [4], 73 % of control; under setting [5], 35 % of control; under setting [6], -63 % of control.
As for `CN(C)c1nc(N(C)C)[n+]([O-])c(N(C)C)n1`, the T/C by setting is: (dose: 200.0 mg/kg/injection, schedule: Q01DX010 (ip), vehicle: water) 83 % of control; (dose: 400.0 mg/kg/injection, schedule: Q01DX010 (ip), vehicle: water) 107 % of control.
Turning to `CCOC(=O)C1=C(Nc2ccc(OC)cc2)C(N)=NC1=N`, the T/C (dose: 37.5 mg/kg/injection, schedule: Q04DX003 (ip), vehicle: suspension in saline) was 76 % of control; the T/C (dose: 75.0 mg/kg/injection, schedule: Q04DX003 (ip), vehicle: suspension in saline) was 82 % of control; the T/C (dose: 150.0 mg/kg/injection, schedule: Q04DX003 (ip), vehicle: suspension in saline) was 79 % of control and 103 % of control; the T/C (dose: 300.0 mg/kg/injection, schedule: Q04DX003 (ip), vehicle: suspension in saline) is 47 % of control and 50 % of control; the T/C (dose: 600.0 mg/kg/injection, schedule: Q04DX003 (ip), vehicle: suspension in saline) is 32 % of control.
Take `O=C1N[C@H]2[C@H](CS[C@H]2CCCCC(=O)N(CCP(c2ccccc2)c2ccccc2)CCP(c2ccccc2)c2ccccc2)N1`: the T/C (dose: 600.0 mg/kg/injection, schedule: Q04DX003 (sc), vehicle: Klucel (hydroxypropylcellulose) (HPC)) is 108 % of control; the T/C (dose: 1200.0 mg/kg/injection, schedule: Q04DX003 (sc), vehicle: Klucel (hydroxypropylcellulose) (HPC)) was 97 % of control; the T/C (dose: 2400.0 mg/kg/injection, schedule: Q04DX003 (sc), vehicle: Klucel (hydroxypropylcellulose) (HPC)) was 115 % of control.
As to `O=c1c(O)c(-c2cc(O)c(O)c(O)c2)oc2cc(O)cc(O)c12`, the T/C is, setting by setting: (dose: 50.0 mg/kg/injection, schedule: Q04DX003 (sc), vehicle: saline with Tween-80) 95 % of control; under setting [4], 111 % of control; under setting [5], 115 % of control; under setting [6], 179 % of control.
Take `C=CC(=O)N1CN(C(=O)C=C)CN(C(=O)C=C)C1`: the T/C runs as follows: (dose: 6.25 mg/kg/injection, schedule: Q01DX010 (sc), vehicle: saline with Tween-80) 116 % of control; (dose: 12.5 mg/kg/injection, schedule: Q01DX010 (sc), vehicle: saline with Tween-80) 179 % of control.
As for `COc1ccc(C[C@@H]2NC[C@@H](O)[C@@H]2OC(C)=O)cc1`, the T/C runs as follows: under setting [3], 78 % of control; (dose: 300.0 mg/kg/injection, schedule: Q04DX003 (ip), vehicle: saline with Tween-80) 110 % of control.
`NC(=O)c1[nH]cnc1O`: the T/C reads like this: under setting [1], 96 % of control; under setting [2], 112 % of control and 119 % of control; (dose: 400.0 mg/kg/injection, schedule: Q04DX003 (ip), vehicle: saline with Tween-80) 81 % of control; (dose: 800.0 mg/kg/injection, schedule: Q04DX003 (ip), vehicle: saline with Tween-80) 69 % of control.
